{"source": "paper PMC5982655", "about": "“Interaction of the New Monofunctional Anticancer Agent Phenanthriplatin With Transporters for Organic Cations” (Frontiers in Chemistry, 2018)", "type_in_all_cases": "cell-based", "key": {"DAOY cells": {"test_system": "DAOY cells", "assay": "MTT cell viability, DAOY medulloblastoma cells", "description": "A modified 3-(4,5-dimethylthiazol-2-yl)-2,5-diphenyltetrazolium bromide (MTT) assay (Mosmann, [1983]) was used to test the chemosensitivity of cells to phenanthriplatin and, in some experiments, to cisplatin by determining the glycolysis rate via the reduction of the yellow tetrazolium salt MTT to a purple formazan dye, as previously described (Wehe et al., [2014]). Briefly, after growing for 24 h in the incubator, cells expressing or not hOCT2, hMATE1, hMATE2 or Ctr1 were treated for 10 min with platinum derivatives. Control cells were incubated with drug-free complete cell culture medium. Afterwards, the medium was carefully removed and replaced by 200 μL of fresh complete cell culture medium. After incubation for another 24 h, 10 μL of MTT solution containing 5 mg/mL of the dye were added to each well, and the cells were again incubated for 3 h. The medium was then removed and 100 μL of lysis buffer containing 10% (w/v) sodium dodecyl sulfate and 40% (v/v) dimethylformamide was added to each well. The plates were shaken for 10 min to destroy the cell structure and dissolve the blue formazan dye (Furchert et al., [2007]; Wehe et al., [2014]). Finally, the absorbance was measured at 590 nm using an automated microtiter plate reader (Infinite M200; Tecan, Männedorf, Switzerland). The percentage of viable cells in the untreated controls was compared to that for the various treatments. Experiments carried out with DAOY and UW228 cells followed a similar protocol except that these cells were incubated for 24 h with phenanthriplatin.\n(§1) Data are presented as mean values ± SEM, with (n) referring to the number of wells. IC50 values defined as the concentration of platinum agent required to inhibit uptake of ASP^+ by 50% and EC50 values used to assess cell viability were obtained by sigmoidal concentration-response curve fitting using GraphPad Prism, Version 5.3 (GraphPad Software, San Diego, USA). […] For multiple comparisons, ANOVA with Bonferroni post-test was used. A P-value < 0.05 was considered statistically significant."}, "hOCT2": {"target": "T1, hOCT2 (Homo sapiens, UniProt O15244)", "T1 construct": "expressed in transfected cells; gift of H. Koepsell", "T1 sequence (O15244 1-555)": "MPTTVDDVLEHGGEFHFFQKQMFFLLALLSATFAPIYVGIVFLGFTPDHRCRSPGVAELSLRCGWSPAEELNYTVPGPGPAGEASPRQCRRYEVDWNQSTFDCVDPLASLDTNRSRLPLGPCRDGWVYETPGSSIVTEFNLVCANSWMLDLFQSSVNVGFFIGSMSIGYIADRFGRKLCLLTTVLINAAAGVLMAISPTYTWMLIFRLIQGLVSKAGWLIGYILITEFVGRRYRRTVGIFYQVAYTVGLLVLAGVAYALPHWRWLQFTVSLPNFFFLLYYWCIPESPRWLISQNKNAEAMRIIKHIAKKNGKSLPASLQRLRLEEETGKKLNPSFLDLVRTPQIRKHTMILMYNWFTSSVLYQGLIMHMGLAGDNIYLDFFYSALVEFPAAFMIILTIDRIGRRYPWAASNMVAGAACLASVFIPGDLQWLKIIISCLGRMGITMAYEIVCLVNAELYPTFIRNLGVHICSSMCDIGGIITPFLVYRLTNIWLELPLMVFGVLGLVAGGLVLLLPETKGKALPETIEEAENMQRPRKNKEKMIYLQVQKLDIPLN", "assay": "Inhibition of ASP+ uptake in HEK 293 cells expressing hOCT2", "conditions": "HEK 293 hOCT2, 1 μM ASP+", "description": "(§2) The interaction of phenanthriplatin with transporters for organic cations (OCT1-3, MATE1, and MATE2K) was investigated by measuring its effects on the uptake of the fluorescent organic cation 4-(4-dimethylamino)styryl-N-methylpyridinium (ASP^+). Microfluorometric measurements of ASP^+ uptake were performed with a fluorescence plate reader (Infinity 200, Tecan, Crailsheim, Germany; excitation at 465 nm, emission at 590 nm) as described previously for cultured HEK 293 cells (Wilde et al., [2009]). Before measurements, the culture medium in the wells of the 96 well microtiter plate containing HEK 293 cells was replaced by a HCO3- -free Ringer-like solution containing (in mM) NaCl 145, K2HPO4 1.6, KH2PO4 0.4, D-glucose 5, MgCl2 1, calcium gluconate 1.3, and pH adjusted to 7.4. Fluorescence was measured dynamically at 37°C in each well before and after ASP^+ addition to HCO3- -free Ringer-like solution, alone or together with increasing phenanthriplatin concentrations, and plotted versus time. ASP^+ (final concentration 1 or 10 μM for experiments with OCTs or MATEs, respectively) was added after the third sampling interval. Emission from the complete area of the well bottom was analyzed four times and averaged for each well. […] Background fluorescence was measured for each plate in wells with identical solutions containing no cells and subtracted from each well containing cells. Experiments were performed with cells from one passage of the same day with controls and test replicates in the same plate.\nas §1"}, "hOCT1": {"target": "T2, hOCT1 (Homo sapiens, UniProt O15245)", "T2 construct": "expressed in transfected cells; gift of H. Koepsell", "T2 sequence (O15245 1-554)": "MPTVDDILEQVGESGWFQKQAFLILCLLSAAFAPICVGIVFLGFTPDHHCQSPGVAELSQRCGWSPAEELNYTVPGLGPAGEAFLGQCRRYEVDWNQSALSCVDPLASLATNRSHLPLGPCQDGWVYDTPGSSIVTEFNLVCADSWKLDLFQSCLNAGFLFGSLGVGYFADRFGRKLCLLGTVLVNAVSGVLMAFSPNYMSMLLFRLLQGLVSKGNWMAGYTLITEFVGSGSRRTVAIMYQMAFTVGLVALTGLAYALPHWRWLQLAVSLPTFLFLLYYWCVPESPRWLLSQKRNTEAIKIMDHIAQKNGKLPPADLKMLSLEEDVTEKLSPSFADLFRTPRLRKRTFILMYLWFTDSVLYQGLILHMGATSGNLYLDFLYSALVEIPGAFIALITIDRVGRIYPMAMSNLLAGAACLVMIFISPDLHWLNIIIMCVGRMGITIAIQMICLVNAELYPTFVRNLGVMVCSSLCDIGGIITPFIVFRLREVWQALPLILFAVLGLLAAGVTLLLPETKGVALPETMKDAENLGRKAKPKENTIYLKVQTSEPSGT", "assay": "Inhibition of ASP+ uptake in HEK 293 cells expressing hOCT1", "conditions": "HEK 293 hOCT1, 1 μM ASP+", "description": "as §2, §1"}}, "note": "pEC50, pIC50: −log10 of the molar value. “Also recorded” adds a separate entry of the source.", "data": [{"smiles": "N.N.[Cl][Pt+].c1ccc2c(c1)cnc1ccccc12", "note": "[phenanthriplatin, cis-[Pt(NH3)2Cl(phenanthridine)]^+]", "values": [{"measurement": "Protection from phenanthriplatin toxicity by cimetidine (cell viability, MTT)", "setting": "DAOY cells; 24 h, 1 μM phenanthriplatin + 10-fold higher cimetidine", "value": "efficaciously protected against phenanthriplatin toxicity by cimetidine; also recorded: significantly decreased the toxicity of this compound in DAOY"}, {"measurement": "pEC50", "setting": "DAOY cells; 24 h incubation, MTT", "value": 6.05}, {"measurement": "logEC50 ± SEM for viability", "setting": "DAOY cells; 24 h incubation, MTT", "value": "−6.05 ± 0.02"}, {"measurement": "pIC50", "setting": "hOCT2", "value": 5.70}, {"measurement": "logIC50 (logEC50) ± SEM for inhibition of ASP+ uptake", "setting": "hOCT2", "value": "−5.67 ± 0.10"}, {"measurement": "pIC50", "setting": "hOCT1", "value": 4.72}, {"measurement": "logIC50 (logEC50) ± SEM for inhibition of ASP+ uptake", "setting": "hOCT1", "value": "−4.72 ± 0.21"}]}]}
